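48-hour exposure; five concentrations; linearly interpolated endpoints. GI50: concentration for 50% inhibition of growth.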 The source made the active and inactive calls. Cut-off read from the data, not from the text of the source: active = GI50 up to about 1.1 µM and inactive = higher.
Columns and labels:
Experiment in all cases: NCI-60 cell line screen, 48 h
EKVX = test system: EKVX
OVCAR-5 = test system: OVCAR-5
SNB-19 = test system: SNB-19
SF-539 = test system: SF-539
MCF7 = test system: MCF7
A549 = test system: A549
SR = test system: SR
SF-268 = test system: SF-268
U-251 = test system: U-251
HCT-15 = test system: HCT-15
ACHN = test system: ACHN
SK-MEL-2 = test system: SK-MEL-2
OVCAR-3 = test system: OVCAR-3
TK-10 = test system: TK-10
KM12 = test system: KM12
SK-MEL-5 = test system: SK-MEL-5
M14 = test system: M14
OVCAR-8 = test system: OVCAR-8
SK-MEL-28 = test system: SK-MEL-28
SW-620 = test system: SW-620

Row | Compound | GI50 (EKVX) | GI50 (OVCAR-5) | GI50 (SNB-19) | GI50 (SF-539) | GI50 (MCF7) | GI50 (A549) | GI50 (SR) | GI50 (SF-268) | GI50 (U-251) | GI50 (HCT-15) | GI50 (ACHN) | GI50 (SK-MEL-2) | GI50 (OVCAR-3) | GI50 (TK-10) | GI50 (KM12) | GI50 (SK-MEL-5) | GI50 (M14) | GI50 (OVCAR-8) | GI50 (SK-MEL-28) | GI50 (SW-620)
1 | Cc1cc(S(=O)(=O)Nc2nc3ccccc3[nH]2)c(S)cc1Cl | 53.6 µM (inactive) | > 100 µM (inactive) | 72.3 µM (inactive) | > 100 µM (inactive) | 71 µM (inactive) | 45.2 µM (inactive) | 38.2 µM (inactive) | 64.7 µM (inactive) | 24.1 µM (inactive) | > 100 µM | 71.9 µM (inactive) | 30.9 µM (inactive) | 49.2 µM (inactive) | > 100 µM (inactive) | 37.5 µM (inactive) | 35.2 µM (inactive) | > 100 µM (inactive) | > 100 µM (inactive) | 27.4 µM (inactive) | 37.6 µM (inactive)
2 | Cc1cccc(C(C)O)n1 (stereo unspecified) | > 100 µM (inactive) | > 100 µM (inactive) | > 100 µM (inactive) | > 100 µM (inactive) | > 100 µM (inactive) | > 100 µM (inactive) | > 100 µM (inactive) | > 100 µM (inactive) | > 100 µM (inactive) | > 100 µM | > 100 µM (inactive) | > 100 µM (inactive) | > 100 µM (inactive) | > 100 µM (inactive) | > 100 µM (inactive) | > 100 µM (inactive) | > 100 µM (inactive) | > 100 µM (inactive) | > 100 µM (inactive) | > 100 µM (inactive)
3 | CCOC(=O)CCNC(=O)c1cc(C)cc2c1Oc1c(cc(C)cc1C(=O)NCCC(=O)OCC)S2 | > 100 µM (inactive) | > 100 µM (inactive) | 42 µM (inactive) | 50.4 µM (inactive) | 57.1 µM (inactive) | 64 µM (inactive) | > 100 µM (inactive) | 49.2 µM (inactive) | 62.5 µM (inactive) | > 100 µM | > 100 µM (inactive) | 90.8 µM (inactive) | > 100 µM (inactive) | 42.3 µM (inactive) | > 100 µM (inactive) | 35.9 µM (inactive) | > 100 µM (inactive) | 78.3 µM (inactive) | > 100 µM (inactive) | > 100 µM (inactive)
4 | COc1cc2c(/C=C3/C(=O)Nc4cccc(Cl)c43)c(Cl)[nH]c2cc1C | – | 4.02 µM (inactive) | 2.14 µM (inactive) | 1.6 µM (inactive) | 2.05 µM (inactive) | 2.09 µM (inactive) | 1.41 µM (inactive) | 3.8 µM (inactive) | 1.78 µM (inactive) | 1.95 µM | 2.67 µM (inactive) | 3.05 µM (inactive) | 1.6 µM (inactive) | 1.06 µM (active) | 1.7 µM (inactive) | 3.5 µM (inactive) | 2.23 µM (inactive) | 2.54 µM (inactive) | 1.21 µM (inactive) | 2.24 µM (inactive)
5 | N#Cc1nc(-c2cccs2)oc1N | 75 µM (inactive) | > 100 µM (inactive) | > 100 µM (inactive) | > 100 µM (inactive) | 83.2 µM (inactive) | > 100 µM (inactive) | > 100 µM (inactive) | > 100 µM (inactive) | > 100 µM (inactive) | > 100 µM | > 100 µM (inactive) | > 100 µM (inactive) | > 100 µM (inactive) | > 100 µM (inactive) | > 100 µM (inactive) | > 100 µM (inactive) | > 100 µM (inactive) | > 100 µM (inactive) | > 100 µM (inactive) | > 100 µM (inactive)
6 | COc1ccc(C2SCC(=O)N2NC(=O)C(C)Oc2ccccc2C)cc1 (stereo unspecified) | > 100 µM (inactive) | > 100 µM (inactive) | > 100 µM (inactive) | > 100 µM (inactive) | 54.1 µM (inactive) | 61.4 µM (inactive) | 28.2 µM (inactive) | > 100 µM (inactive) | 85.7 µM (inactive) | 54.7 µM | 68.5 µM (inactive) | 92.7 µM (inactive) | > 100 µM (inactive) | > 100 µM (inactive) | > 100 µM (inactive) | 53 µM (inactive) | > 100 µM (inactive) | > 100 µM (inactive) | > 100 µM (inactive) | > 100 µM (inactive)
7 | C=C1C[C@@H](O)[C@@H](Br)C(C)(C)[C@]12CCC(C)(Br)C(Cl)C2 (stereo partly specified) | 25.4 µM (inactive) | 1.7 µM (inactive) | > 50 µM (inactive) | > 50 µM (inactive) | > 50 µM (inactive) | > 50 µM (inactive) | > 50 µM (inactive) | > 50 µM (inactive) | > 50 µM (inactive) | > 50 µM | > 50 µM (inactive) | > 50 µM (inactive) | > 50 µM (inactive) | > 50 µM (inactive) | 1.07 µM (active) | > 50 µM (inactive) | > 50 µM (inactive) | > 50 µM (inactive) | > 50 µM (inactive) | > 50 µM (inactive)
8 | CCOC(=O)COc1ccc(/C=C/C(=O)c2ccc(OC)cc2)cc1 | 27.8 µM (inactive) | 37.4 µM (inactive) | 41.8 µM (inactive) | 19.6 µM (inactive) | 30.7 µM (inactive) | 58.1 µM (inactive) | 23.2 µM (inactive) | 22.3 µM (inactive) | 14.3 µM (inactive) | 24.4 µM | 33 µM (inactive) | 27.7 µM (inactive) | 30 µM (inactive) | 42 µM (inactive) | 28.4 µM (inactive) | > 10 µM (inactive) | 34.6 µM (inactive) | 24.5 µM (inactive) | 19.3 µM (inactive) | 20.7 µM (inactive)
9 | COc1cc2ccc1OCc1cccc(n1)COc1ccc(cc1OC)/C=N\CCNCCNCC/N=C\2 | > 100 µM (inactive) | > 100 µM (inactive) | > 100 µM (inactive) | > 100 µM (inactive) | 49 µM (inactive) | > 100 µM (inactive) | > 100 µM (inactive) | > 100 µM (inactive) | > 100 µM (inactive) | > 100 µM | > 100 µM (inactive) | > 100 µM (inactive) | > 100 µM (inactive) | > 100 µM (inactive) | > 100 µM (inactive) | > 100 µM (inactive) | > 100 µM (inactive) | > 100 µM (inactive) | – | > 100 µM (inactive)
10 | COc1cc(=O)n2c3ccccc3n(C)c2c1C#N | > 100 µM (inactive) | > 100 µM (inactive) | > 100 µM (inactive) | > 100 µM (inactive) | > 100 µM (inactive) | > 100 µM (inactive) | > 100 µM (inactive) | > 100 µM (inactive) | > 100 µM (inactive) | > 100 µM | 76.9 µM (inactive) | > 100 µM (inactive) | > 100 µM (inactive) | > 100 µM (inactive) | > 100 µM (inactive) | > 100 µM (inactive) | > 100 µM (inactive) | > 100 µM (inactive) | – | > 100 µM (inactive)
11 | CCC(C#N)N(Cc1cccc(CN(C(C)=O)C(C#N)CC)c1)C(C)=O (stereo unspecified) | > 100 µM (inactive) | > 100 µM (inactive) | > 100 µM (inactive) | > 100 µM (inactive) | > 100 µM (inactive) | > 100 µM (inactive) | 77.8 µM (inactive) | > 100 µM (inactive) | > 100 µM (inactive) | 42.9 µM | > 100 µM (inactive) | > 100 µM (inactive) | > 100 µM (inactive) | > 100 µM (inactive) | > 100 µM (inactive) | > 100 µM (inactive) | > 100 µM (inactive) | > 100 µM (inactive) | – | > 100 µM (inactive)

Reference: ChEMBL document CHEMBL1201862, “PubChem BioAssay data set” (2004)
